IC50 data for 2 compounds are collected here from US20230192646A1, “DIHYDRO-CYCLOPENTA-ISOQUINOLINE DERIVATIVES” (UCB Biopharma SRL, priority 2019, published 2023).

Molecules are shown by their SMILES.

For this assay, the target named is T1, IgE-Tb / FcεR1α-Y131A-AF488 (soluble IgE receptor FcεR1α with a Y131A mutation) (Homo sapiens, UniProt P0DOX4, C225A/N265Q/N371Q).
T1 construct: 86 nmoles of IgE-Fc(N265Q, N371Q) (Young et al., 1995)
The assay can be described thus: In vitro FRET assay of IgE-Tb binding to FcεR1α-Y131A-AF488, 2 hours incubation (examples 16 and 89). The note with it: 5 nM IgE-Tb, 25 nM FcεR1α-Y131A-AF488; 2 hours at room temperature; read-out: FRET IC50 range. The method, then: 86 nmoles of IgE-Fc(N265Q, N371Q) (Young et al., 1995) at 172 μM in 100 mM NaHCO3, pH 9.5 was added to 1 mg of LanthaScreen™ Amine Reactive Tb Chelate (ThermoFisher catalogue number PV3583) and incubated for 16 hours at 20° C. The material was then buffer exchanged into Phosphate Buffered Saline (being, 137 mM NaCl, 2.7 mM KCl, 10 mM Na2HPO4, 1.8 mM K2HPO4, pH 7.4) and the material quantified and the degree of Tb conjugation determined by measuring the absorption at 280 nm and 343 nm.
400 nmoles FcεR1α (Y131A mutant) (Cook et al., 1997) at 400 μM in 100 mM NaOAc pH 5.5 was reacted with 1 mM final concentration sodium periodate (in 100 mM NaOAc, pH 5.5) for 60 minutes at 22° C. […]
175 nmoles of protein was added to 1 mg of Alexa Fluor™ 488 hydrazide (Invitrogen) and incubated for 16 hours at 22° C. […] The protein was buffer exchanged into Phosphate Buffered Saline (being, 137 mM NaCl, 2.7 mM KCl, 10 mM Na2HPO4, 1.8 mM K2HPO4, pH 7.4) and the material quantified and the degree of Alexa Fluor™ 488 conjugation determined by measuring the absorption at 280 nm and 495 nm.
The aim was to measure binding of IgE-Tb to receptor, and the inhibition thereof by compounds, using an in vitro Fluorescence Resonance Energy Transfer (FRET) Assay. […]
Measurement of FRET for each well was carried out by exciting at 330 nm and measuring emission at 495/520 nm using an Envision plate reader (Perkin Elmer). […]

T1 sequence (P0DOX4 224-547 C225A/N265Q/N371Q): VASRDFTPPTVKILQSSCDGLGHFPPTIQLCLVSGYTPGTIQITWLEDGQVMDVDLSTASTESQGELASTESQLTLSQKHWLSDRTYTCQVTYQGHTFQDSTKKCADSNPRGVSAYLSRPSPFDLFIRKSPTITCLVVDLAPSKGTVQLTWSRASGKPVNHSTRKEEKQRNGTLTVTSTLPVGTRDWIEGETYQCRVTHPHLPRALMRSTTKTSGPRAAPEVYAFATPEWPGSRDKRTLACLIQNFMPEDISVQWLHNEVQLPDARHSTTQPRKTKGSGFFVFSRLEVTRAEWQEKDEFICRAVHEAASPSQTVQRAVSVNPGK

For orientation: IC50 means the concentration needed to halve the response being measured. With `CCNC(=O)N[C@H]1C[C@H](O)c2cc(S(=O)(=O)NCC(C)C)c3cc(C4CC4)ncc3c21` (racemic) [Example 16, 1-ethyl-3-[trans-(7RS,9RS)-3-cyclopropyl-7-hydroxy-5-(2-methylpropylsulfamoyl)-8,9-dihydro-7H-cyclopenta[h]isoquinolin-9-yl]urea], the IC50 was in the range of 100 to 2000 nM.
Turning to `CC(C)(F)CNS(=O)(=O)c1cc2c(c3cnc(C4CC4)cc13)C(N)CC2NC(=O)c1cccnc1` (centres unmarked) [Example 89, N-[9-amino-3-cyclopropyl-5-[(2-fluoro-2-methylpropyl)sulfamoyl]-8,9-dihydro-7H-cyclopenta[h]isoquinolin-7-yl]pyridine-3-carboxamide], the concentration for half-maximal inhibition (IC50) lay within 100 to 2000 nM.
